Experimental data reported in US20100099871A1, “ANTI-PSYCHOTIC COMPOUNDS AND PHARMACEUTICAL COMPOSITIONS THEREOF” (priority 2008, published 2010).

How the values were obtained:
Alpha 1D = Alpha 1D (Homo sapiens, UniProt P25100); assay: In vitro receptor binding, Alpha 1D; settings: given in words, no number
Description: (§1) Three of the compounds predicted to display antipsychotic activity have been synthesized and characterized. Once compounds meeting selection criteria of the spectral models were identified, confirmatory in vitro screening and cross-screening were conducted. For example, receptor binding studies were conducted for 5-HT1A, 5-HT2A, 5-HT2C, 5-HT6, 5-HT7, α1A, α1B, α1D, α2A, α2B, α2C, D2, H1, M1, M2, M3, M4, and M5 to further determine a broad pharmacological profile for compounds meeting spectral modeling selection criteria. Synthesis and characterization of these compounds is provided as an Experimental Example. […] For D2 and 5-HT2A receptors, experimental results were within 11% of predicted values. […] In some embodiments, the compounds are selective for 5-HT2A over D2. […] As such the compounds are advantageous over clozapine and may be beneficial for treating psychotic conditions, such as schizophrenia.

5-HT7 = 5-HT7 (Homo sapiens, UniProt P34969); assay: In vitro receptor binding, 5-HT7; settings: read-out: In vitro testing data (receptor binding affinity), 5-HT7
Chain of 5-HT7 (P34969 whole entry, species assumed): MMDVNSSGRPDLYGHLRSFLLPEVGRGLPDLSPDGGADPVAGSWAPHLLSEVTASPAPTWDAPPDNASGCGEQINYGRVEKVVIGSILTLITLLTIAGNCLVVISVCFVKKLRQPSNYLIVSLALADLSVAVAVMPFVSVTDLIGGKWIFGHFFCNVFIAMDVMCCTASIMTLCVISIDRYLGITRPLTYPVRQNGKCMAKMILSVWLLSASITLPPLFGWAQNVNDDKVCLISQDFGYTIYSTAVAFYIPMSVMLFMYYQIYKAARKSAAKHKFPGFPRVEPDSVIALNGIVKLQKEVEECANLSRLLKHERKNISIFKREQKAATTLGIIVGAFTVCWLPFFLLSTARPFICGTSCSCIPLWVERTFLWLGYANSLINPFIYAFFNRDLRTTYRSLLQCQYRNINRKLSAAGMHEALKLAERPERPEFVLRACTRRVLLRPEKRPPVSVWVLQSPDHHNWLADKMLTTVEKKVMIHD
Description: as §1

5-HT2c = 5-HT2c (Homo sapiens, UniProt P28335); assay: In vitro receptor binding, 5-HT2c; settings: read-out: In vitro testing data (receptor binding affinity), 5-HT2c
Description: as §1

5-HT6 = 5-HT6 (Homo sapiens, UniProt P50406); assay: In vitro receptor binding, 5-HT6; settings: read-out: In vitro testing data (receptor binding affinity), 5-HT6
Description: as §1

[1] = test system: nucleus accumbens dopamine release; assay: In vivo microdialysis, nucleus accumbens dopamine release; parameters: species or system male Sprague-Dawley rats; settings: rat microdialysis; ceiling effect, increasing dose gave no additional release (FIG. 12)
Description: (§2) In vivo microdialysis studies were conducted according to established methods. In summary, two cannulae with microdialysis probes were implanted via stereotaxic surgery (one each into two separate brain regions), into the medial prefrontal cortex and nucleus accumbens of male Sprague-Dawley rats weighing from 250 g to 300 g. After recovery from surgery, a solution was circulated through the probes on test days collecting extracellular synaptic fluid at 30-minute intervals and delivering it to an HPLC for analysis of extracellular dopamine concentrations in real time following antipsychotic compound dosing. Simultaneously, an aliquot was taken and frozen for later mass spectrometric determination of acetylcholine concentrations.

H1 = H1 (Homo sapiens, UniProt P35367); assay: In vitro receptor binding, H1; settings: read-out: In vitro testing data (receptor binding affinity), H1
Chain of H1 (P35367 whole entry): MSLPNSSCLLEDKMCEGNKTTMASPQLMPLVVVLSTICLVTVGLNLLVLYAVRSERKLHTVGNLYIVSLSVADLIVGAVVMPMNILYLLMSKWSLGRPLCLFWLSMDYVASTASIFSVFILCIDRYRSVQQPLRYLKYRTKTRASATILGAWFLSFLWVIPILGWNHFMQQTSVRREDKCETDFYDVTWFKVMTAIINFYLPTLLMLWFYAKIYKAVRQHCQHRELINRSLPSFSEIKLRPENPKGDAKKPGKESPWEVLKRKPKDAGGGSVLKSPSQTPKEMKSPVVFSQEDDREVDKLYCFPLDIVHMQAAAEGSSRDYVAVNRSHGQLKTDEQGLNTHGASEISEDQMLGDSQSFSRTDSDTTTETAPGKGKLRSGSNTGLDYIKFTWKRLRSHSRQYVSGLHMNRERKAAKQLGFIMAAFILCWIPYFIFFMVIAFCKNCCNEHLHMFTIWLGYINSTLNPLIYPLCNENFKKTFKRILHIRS
Description: as §1

[2] = test system: pre-frontal cortex dopamine release; assay: In vivo microdialysis, pre-frontal cortex dopamine release; parameters: species or system male Sprague-Dawley rats; settings: rat microdialysis
Description: as §2

Alpha 2B = Alpha 2B (Homo sapiens, UniProt P18089); assay: In vitro receptor binding, Alpha 2B; settings: given in words, no number
Description: as §1

D2 = D2 (Homo sapiens, UniProt P14416); assay: In vitro receptor binding, D2; settings: read-out: In vitro testing data (receptor binding affinity), D2
Chain of D2 (P14416 whole entry): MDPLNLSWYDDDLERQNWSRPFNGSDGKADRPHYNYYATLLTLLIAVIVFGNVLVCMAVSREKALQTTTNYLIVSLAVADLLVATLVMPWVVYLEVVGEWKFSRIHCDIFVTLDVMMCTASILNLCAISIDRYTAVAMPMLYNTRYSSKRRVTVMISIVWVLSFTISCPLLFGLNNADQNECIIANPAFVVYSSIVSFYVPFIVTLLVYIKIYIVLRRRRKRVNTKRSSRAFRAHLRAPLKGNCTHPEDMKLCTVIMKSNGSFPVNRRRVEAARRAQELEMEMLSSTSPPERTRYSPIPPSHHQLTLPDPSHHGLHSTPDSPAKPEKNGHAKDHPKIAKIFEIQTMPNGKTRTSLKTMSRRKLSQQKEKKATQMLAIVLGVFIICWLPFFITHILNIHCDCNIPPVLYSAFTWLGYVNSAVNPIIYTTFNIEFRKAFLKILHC
Description: as §1

5-HT1a = 5-HT1a (Homo sapiens, UniProt P08908); assay: In vitro receptor binding, 5-HT1a; settings: given in words, no number
Description: as §1

[3] = test system: pre-frontal cortex acetylcholine release; assay: In vivo microdialysis, pre-frontal cortex acetylcholine release; parameters: species or system male Sprague-Dawley rats; settings: rat microdialysis (FIG. 13); LMD-00100t at the maximum dose tested, data not shown
Description: as §2

M1 = M1 (Homo sapiens, UniProt P11229); assay: In vitro receptor binding, M1; settings: read-out: In vitro testing data (receptor binding affinity), M1
Chain of M1 (P11229 whole entry): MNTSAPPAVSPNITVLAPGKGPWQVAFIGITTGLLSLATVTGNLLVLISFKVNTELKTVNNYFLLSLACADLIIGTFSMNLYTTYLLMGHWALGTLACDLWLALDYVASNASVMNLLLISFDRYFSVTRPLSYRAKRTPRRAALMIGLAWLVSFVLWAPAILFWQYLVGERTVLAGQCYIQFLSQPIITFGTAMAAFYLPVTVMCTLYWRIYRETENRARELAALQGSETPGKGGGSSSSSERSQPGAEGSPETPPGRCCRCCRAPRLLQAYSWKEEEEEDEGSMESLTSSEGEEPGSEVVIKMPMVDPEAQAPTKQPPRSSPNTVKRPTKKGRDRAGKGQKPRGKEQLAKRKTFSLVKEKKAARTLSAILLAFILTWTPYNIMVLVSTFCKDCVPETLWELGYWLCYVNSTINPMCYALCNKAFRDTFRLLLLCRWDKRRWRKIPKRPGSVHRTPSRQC
Description: as §1

Alpha 1A = Alpha 1A (Homo sapiens, UniProt P35348); assay: In vitro receptor binding, Alpha 1A; settings: given in words, no number
Description: as §1

5-HT2a = 5-HT2a (Homo sapiens, UniProt P28223); assay: In vitro receptor binding, 5-HT2a; settings: read-out: In vitro testing data (receptor binding affinity), 5-HT2a
Chain of 5-HT2a (P28223 whole entry, species assumed): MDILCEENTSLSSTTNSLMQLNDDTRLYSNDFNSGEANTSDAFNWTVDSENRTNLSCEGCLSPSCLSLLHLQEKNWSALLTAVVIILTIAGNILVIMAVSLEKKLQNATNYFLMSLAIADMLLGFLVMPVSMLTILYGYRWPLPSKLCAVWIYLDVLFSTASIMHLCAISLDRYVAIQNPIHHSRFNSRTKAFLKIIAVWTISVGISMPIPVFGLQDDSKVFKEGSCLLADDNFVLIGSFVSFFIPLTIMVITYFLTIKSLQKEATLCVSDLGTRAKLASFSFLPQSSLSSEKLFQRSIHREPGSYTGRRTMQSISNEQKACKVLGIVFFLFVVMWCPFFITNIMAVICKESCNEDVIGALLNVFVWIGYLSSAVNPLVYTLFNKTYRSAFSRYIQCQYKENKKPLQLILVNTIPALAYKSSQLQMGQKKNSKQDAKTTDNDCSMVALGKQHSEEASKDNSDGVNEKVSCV
Description: as §1

Alpha 1B = Alpha 1B (Homo sapiens, UniProt P35368); assay: In vitro receptor binding, Alpha 1B; settings: given in words, no number
Description: as §1

M2 = M2 (Homo sapiens, UniProt P08172); assay: In vitro receptor binding, M2; settings: read-out: In vitro testing data (receptor binding affinity), M2
Chain of M2 (P08172 whole entry): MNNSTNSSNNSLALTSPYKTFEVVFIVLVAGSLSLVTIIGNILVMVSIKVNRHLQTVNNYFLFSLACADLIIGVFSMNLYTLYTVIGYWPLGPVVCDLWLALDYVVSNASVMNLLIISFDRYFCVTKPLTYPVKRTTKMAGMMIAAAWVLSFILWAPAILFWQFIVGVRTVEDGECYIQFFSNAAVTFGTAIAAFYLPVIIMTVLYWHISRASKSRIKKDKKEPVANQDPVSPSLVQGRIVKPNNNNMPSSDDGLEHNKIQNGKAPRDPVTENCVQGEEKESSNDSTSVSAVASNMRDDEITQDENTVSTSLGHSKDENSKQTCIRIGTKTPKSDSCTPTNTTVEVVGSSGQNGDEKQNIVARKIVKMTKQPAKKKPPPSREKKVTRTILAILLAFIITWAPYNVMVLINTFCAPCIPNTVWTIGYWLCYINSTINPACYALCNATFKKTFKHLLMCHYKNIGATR
Description: as §1

M4 = M4 (Homo sapiens, UniProt P08173); assay: In vitro receptor binding, M4; settings: read-out: In vitro testing data (receptor binding affinity), M4
Chain of M4 (P08173 whole entry): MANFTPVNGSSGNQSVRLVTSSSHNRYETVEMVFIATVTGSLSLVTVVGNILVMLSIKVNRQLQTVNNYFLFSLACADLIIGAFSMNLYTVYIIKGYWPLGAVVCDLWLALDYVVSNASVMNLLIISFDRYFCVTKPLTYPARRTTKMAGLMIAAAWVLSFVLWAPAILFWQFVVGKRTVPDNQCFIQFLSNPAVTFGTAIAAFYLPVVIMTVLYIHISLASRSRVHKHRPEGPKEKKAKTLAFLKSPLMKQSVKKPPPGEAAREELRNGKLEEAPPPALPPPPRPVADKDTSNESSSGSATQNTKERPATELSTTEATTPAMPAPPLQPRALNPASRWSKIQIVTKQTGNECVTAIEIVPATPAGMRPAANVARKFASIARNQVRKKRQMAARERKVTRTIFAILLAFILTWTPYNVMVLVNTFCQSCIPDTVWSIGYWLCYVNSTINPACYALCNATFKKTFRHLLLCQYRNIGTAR
Description: as §1

Alpha 2C = Alpha 2C (Homo sapiens, UniProt P18825); assay: In vitro receptor binding, Alpha 2C; settings: given in words, no number
Chain of Alpha 2C (P18825 whole entry): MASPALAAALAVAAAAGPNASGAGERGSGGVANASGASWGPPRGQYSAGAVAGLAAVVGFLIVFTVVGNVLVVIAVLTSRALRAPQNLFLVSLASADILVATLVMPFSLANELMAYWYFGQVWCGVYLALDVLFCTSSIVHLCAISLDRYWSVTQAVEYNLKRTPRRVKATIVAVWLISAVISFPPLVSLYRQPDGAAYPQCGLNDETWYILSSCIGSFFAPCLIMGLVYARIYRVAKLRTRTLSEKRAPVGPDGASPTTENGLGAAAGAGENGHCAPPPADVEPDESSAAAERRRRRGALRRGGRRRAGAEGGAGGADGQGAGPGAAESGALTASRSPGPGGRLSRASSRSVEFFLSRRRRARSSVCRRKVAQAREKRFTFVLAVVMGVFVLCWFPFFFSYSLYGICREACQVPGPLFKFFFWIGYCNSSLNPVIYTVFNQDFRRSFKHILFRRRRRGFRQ
Description: as §1

M3 = M3 (Homo sapiens, UniProt P20309); assay: In vitro receptor binding, M3; settings: read-out: In vitro testing data (receptor binding affinity), M3
Chain of M3 (P20309 whole entry): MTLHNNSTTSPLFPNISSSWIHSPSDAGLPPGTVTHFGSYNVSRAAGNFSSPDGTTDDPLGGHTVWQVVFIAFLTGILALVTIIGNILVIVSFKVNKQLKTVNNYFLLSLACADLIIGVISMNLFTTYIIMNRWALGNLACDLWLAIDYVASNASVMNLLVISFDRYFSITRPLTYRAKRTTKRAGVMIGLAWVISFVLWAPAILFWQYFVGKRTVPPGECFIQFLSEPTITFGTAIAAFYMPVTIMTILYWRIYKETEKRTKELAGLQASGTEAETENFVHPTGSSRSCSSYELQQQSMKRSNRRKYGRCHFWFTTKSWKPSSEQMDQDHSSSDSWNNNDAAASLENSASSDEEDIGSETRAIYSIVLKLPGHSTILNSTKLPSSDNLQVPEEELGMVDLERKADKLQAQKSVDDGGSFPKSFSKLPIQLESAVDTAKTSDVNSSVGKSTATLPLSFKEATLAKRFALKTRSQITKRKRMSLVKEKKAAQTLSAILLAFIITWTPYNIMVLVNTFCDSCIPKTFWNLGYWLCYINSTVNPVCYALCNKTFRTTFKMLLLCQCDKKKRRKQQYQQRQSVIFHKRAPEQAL
Description: as §1

Alpha 2A = Alpha 2A (Homo sapiens, UniProt P08913); assay: In vitro receptor binding, Alpha 2A; settings: given in words, no number
Description: as §1

M5 = M5 (Homo sapiens, UniProt P08912); assay: In vitro receptor binding, M5; settings: read-out: In vitro testing data (receptor binding affinity), M5
Description: as §1

Chain of Alpha 1D (P25100 whole entry): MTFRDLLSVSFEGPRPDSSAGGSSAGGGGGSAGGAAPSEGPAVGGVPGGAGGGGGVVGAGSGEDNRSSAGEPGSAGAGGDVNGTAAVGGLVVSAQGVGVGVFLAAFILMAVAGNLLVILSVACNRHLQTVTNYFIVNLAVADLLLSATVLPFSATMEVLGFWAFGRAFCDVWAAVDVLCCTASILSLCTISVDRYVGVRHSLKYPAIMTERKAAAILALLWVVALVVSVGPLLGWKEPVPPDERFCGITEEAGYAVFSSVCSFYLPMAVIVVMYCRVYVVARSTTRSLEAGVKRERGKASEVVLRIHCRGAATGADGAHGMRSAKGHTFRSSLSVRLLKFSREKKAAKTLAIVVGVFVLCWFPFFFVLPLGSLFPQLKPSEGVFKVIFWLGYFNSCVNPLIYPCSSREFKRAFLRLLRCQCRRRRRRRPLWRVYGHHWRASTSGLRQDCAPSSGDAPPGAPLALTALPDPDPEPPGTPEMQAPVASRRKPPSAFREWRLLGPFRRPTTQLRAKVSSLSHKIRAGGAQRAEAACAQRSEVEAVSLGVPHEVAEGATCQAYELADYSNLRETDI

SMILES	In vitro testing data, Alpha 1D (yes) (Alpha 1D)	Kd (5-HT7) [nM]	Kd (5-HT2c) [nM]	Kd (5-HT6) [nM]	Kd (H1) [nM]	In vitro testing data, Alpha 2B (yes) (Alpha 2B)	Kd (D2) [nM]	Kd (M1) [nM]	In vitro testing data, Alpha 1A (yes) (Alpha 1A)	Kd (5-HT2a) [nM]	In vitro testing data, Alpha 1B (yes) (Alpha 1B)	Kd (M2) [µM]	Kd (M4) [nM]	In vitro testing data, Alpha 2C (yes) (Alpha 2C)	Kd (M3) [nM]	In vitro testing data, Alpha 2A (yes) (Alpha 2A)	Kd (M5) [nM]	other results
CN1CCN(CCN2c3ccccc3Cc3ccccc32)CC1 [LMD-00076]	yes	1140	968	652	185	yes	692	707	yes	249	yes	3.33	1100	yes	702	yes	419	nucleus accumbens dopamine release [1]: modest increase; pre-frontal cortex dopamine efflux on co-dosing with WAY 100635 ([2]; 5-HT1A silent antagonist WAY 100635 co-dosed with LMD-00076 (FIG. 11, curve labeled control)): blocked; pre-frontal cortex dopamine release ([2]; as a function of time following administration (FIG. 11, FIG. 14)): dose-dependent; In vitro testing data, 5-HT1a (yes / dash) (5-HT1a): yes; cortical acetylcholine (ACh) efflux [3]: significant increase
CCN1CCN(CCN2c3ccccc3Cc3ccccc32)CC1 [LMD-00060]	yes	1060	2740	1520	255	yes	632	1360	yes	349	yes	> 10	1910	yes	2490	yes	613	–
